The target of one assay is NK1 receptor (Homo sapiens, UniProt P25103). Put plainly: neurokinin receptor binding assay (NK1). The source says:
(§1) The in vitro and in vivo activity of the compounds of formula I can be determined by various procedures known in the art, such as a test for their ability to inhibit the activity of the NK1 agonist Substance P, an isolated hamster trachea NK2 assay, a test of the effect of NK1 antagonists on Substance P-induced airway microvascular leakage, measurement of NK2 activity in vivo in guinea pigs, measurement of bronchoconstriction due to NKA, and neurokinin receptor binding assay(s). NK3 activity is determined by following a procedure similar to that described in the literature, e.g., Molecular Pharmacol., 48 (1995), p. 711-716.
(§2) % Inhibition of neurokinin agonist activity is the difference between the percent of maximum specific binding (MSB) and 100%. The percent of MSB is defined by the following equation, wherein "dpm" is disintegrations per minute: % MSB =((dpm of unknown) - (dpm of nonspecific binding))/((dpm of total binding) - (dpm of nonspecific binding))X 100 [formula]

The next assay concerns the target T1, NK2 receptor (Homo sapiens, UniProt P21452).
T1 sequence (P21452 1-398): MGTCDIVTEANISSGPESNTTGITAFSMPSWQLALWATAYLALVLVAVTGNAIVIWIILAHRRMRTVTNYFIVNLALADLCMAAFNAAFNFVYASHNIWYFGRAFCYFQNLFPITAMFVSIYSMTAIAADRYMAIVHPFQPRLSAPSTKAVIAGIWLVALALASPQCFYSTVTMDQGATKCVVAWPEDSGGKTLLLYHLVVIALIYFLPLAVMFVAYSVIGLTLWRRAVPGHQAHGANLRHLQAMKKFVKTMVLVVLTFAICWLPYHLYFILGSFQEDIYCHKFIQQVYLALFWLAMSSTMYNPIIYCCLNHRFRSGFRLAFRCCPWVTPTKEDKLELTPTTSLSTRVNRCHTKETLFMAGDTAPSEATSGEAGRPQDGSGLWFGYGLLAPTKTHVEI
Put plainly: neurokinin receptor binding assay (NK2).
Description: as §1, with “711-716. Typical procedures for determining NK1 and NK2 activity are described in U.S. 5,696,267, incorporated herein by reference.” for “711-716.”
as §2
Using the test procedures known in the art, the following data (% inhibition or Ki) were obtained for preferred and/or representative compounds of formula I: […]

Sequence of NK1 receptor (P25103 whole entry, species assumed): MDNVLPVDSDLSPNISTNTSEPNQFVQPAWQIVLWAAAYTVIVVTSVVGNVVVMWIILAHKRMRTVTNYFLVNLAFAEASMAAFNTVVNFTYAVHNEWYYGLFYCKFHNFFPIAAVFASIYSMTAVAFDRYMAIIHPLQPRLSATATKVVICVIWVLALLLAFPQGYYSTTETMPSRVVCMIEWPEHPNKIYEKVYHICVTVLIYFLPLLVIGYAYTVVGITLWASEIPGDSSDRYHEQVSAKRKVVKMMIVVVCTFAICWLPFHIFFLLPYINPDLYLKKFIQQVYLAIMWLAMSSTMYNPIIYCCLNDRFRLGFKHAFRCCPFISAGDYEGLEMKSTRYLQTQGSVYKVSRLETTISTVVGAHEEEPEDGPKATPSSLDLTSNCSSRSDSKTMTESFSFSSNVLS

In the case of `CO/N=C(\CN(C)C(=O)c1cc(Cl)cc(Cl)c1)[C@H](CCN1CCC(n2c(=O)[nH]c3ccccc32)CC1)c1ccc(Cl)c(Cl)c1` [Example 18A], the inhibition constant Ki at NK1 receptor was determined as 1.2 nM; on NK2 receptor it was 1 nM.

As for `CO/N=C(\CN(C)C(=O)c1cc(Cl)cc(Cl)c1)[C@H](CCN1CCC(N2CCCN(Cc3nn[nH]n3)C2=O)CC1)c1ccc(Cl)c(Cl)c1` [Example 6S], the inhibition constant Ki at NK1 receptor was 1 nM; on NK2 receptor, 0.9 nM.

On to `CO/N=C(\CN(C)C(=O)c1cc(Cl)cc(Cl)c1)[C@H](CCN1CCC(N2CCCN(CC(C)(C)O)C2=O)CC1)c1ccc(Cl)c(Cl)c1` [Example 6K], for which, on NK2 receptor, the inhibitory constant (Ki) came to 0.8 nM.

The Ki is a measure of affinity in units of concentration, obtained from inhibition or displacement. Lower therefore signals higher affinity.
